Source: article PMC10683025, “Discovery of a Hydroxylamine-Based Brain-Penetrant EGFR Inhibitor for Metastatic Non-Small-Cell Lung Cancer” (Journal of Medicinal Chemistry, 2023)
Where “and” joins values, the source holds several entries; their conditions need not be identical. Equal values may be shown once. Entries after “also recorded” stand apart in the source; their conditions may differ.

Tests used:
[1] = biological target: T1, BCR-ABLwt (Nonphos.) (Homo sapiens, UniProt P00519); experiment: KINOMEScan KdELECT Kd determination; assay type: binding; conditions: read-out: Kinase Kd
T1 construct: purchased Eurofins DiscoverX (contract assay)
Procedure: (§1) In vitro kinase activity (inhibitor binding constants (Kd) and biochemical inhibition (IC50’s)) were assessed by Eurofins DiscoverX (Kd determinations) and Eurofins Cerep (biochemical IC50 determinations).

[2] = biological target: T2, BCR-ABLwt (Phos.) (Homo sapiens, UniProt P00519); experiment: KINOMEScan KdELECT Kd determination; assay type: binding; conditions: read-out: Kinase Kd
T2 construct: purchased Eurofins DiscoverX (contract assay)
Procedure: as §1

[3] = biological target: T3, DRAK1 (Homo sapiens, UniProt Q9UEE5); experiment: KINOMEScan KdELECT Kd determination; assay type: binding; conditions: read-out: Kinase Kd
T3 construct: purchased Eurofins DiscoverX (contract assay)
T3 sequence (Q9UEE5 1-414): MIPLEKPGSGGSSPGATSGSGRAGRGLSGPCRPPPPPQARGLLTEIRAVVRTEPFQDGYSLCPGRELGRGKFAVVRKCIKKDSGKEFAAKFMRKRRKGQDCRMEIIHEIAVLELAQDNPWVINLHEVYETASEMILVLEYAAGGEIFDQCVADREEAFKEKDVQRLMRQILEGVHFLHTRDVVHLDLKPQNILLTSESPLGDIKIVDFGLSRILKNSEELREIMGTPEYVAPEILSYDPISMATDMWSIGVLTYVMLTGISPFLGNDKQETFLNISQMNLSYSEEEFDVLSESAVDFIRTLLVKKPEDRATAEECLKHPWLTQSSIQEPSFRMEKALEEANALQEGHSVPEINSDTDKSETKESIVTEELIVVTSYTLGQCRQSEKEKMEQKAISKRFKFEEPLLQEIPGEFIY
Procedure: as §1

[4] = biological target: T4, ERBB2 (Homo sapiens, UniProt P04626); experiment: KINOMEScan KdELECT Kd determination; assay type: binding; conditions: read-out: Kinase Kd
T4 construct: purchased Eurofins DiscoverX (contract assay)
Procedure: as §1

[5] = biological target: T5, LYN (Homo sapiens, UniProt P07948); experiment: KINOMEScan KdELECT Kd determination; assay type: binding; conditions: read-out: Kinase Kd
T5 construct: purchased Eurofins DiscoverX (contract assay)
T5 sequence (P07948 whole entry): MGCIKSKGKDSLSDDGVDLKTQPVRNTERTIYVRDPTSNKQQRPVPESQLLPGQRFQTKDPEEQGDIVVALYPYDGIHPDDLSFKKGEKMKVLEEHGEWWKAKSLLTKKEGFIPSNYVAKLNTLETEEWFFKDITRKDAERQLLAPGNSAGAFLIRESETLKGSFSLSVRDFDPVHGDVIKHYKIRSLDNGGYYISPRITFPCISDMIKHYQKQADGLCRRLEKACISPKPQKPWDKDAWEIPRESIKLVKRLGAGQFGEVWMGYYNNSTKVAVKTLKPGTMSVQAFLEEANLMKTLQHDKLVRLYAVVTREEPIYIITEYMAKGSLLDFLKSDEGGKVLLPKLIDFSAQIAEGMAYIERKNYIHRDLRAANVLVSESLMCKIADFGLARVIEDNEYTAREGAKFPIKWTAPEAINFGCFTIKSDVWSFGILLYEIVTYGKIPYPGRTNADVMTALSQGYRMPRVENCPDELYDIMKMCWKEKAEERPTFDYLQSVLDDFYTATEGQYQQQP
Procedure: as §1

[6] = Metabolic stability in hepatocytes; assay type: in vitro ADME, beagle dog; conditions: for Remaining Percentages: dog hepatocytes
Procedure: Hepatocyte stability was assessed in duplicate (n = 2) at a working cell density of 0.5 × 10^6 cells/mL with hepatocytes from human (BiolVT), Sprague-Dawley rat (BiolVT), cynomolgus monkey (RILD) or beagle dog (BiolVT). […] The in vitro half-life and intrinsic clearances were determined as previously described.[76]
In vitro half-life (in vitro t1/2) was determined from the slope value in [drawing 1] where k was determined by linear regression of the natural logarithm of the remaining percentage of the parent drug vs the incubation time curve.

[7] = biological target: T6, CYP2C9 (Homo sapiens, UniProt P11712); assay type: in vitro ADME; conditions: liver microsomes
T6 construct: tissue BD Gentest; host or cells: pooled human liver microsomes
T6 sequence (P11712 whole entry): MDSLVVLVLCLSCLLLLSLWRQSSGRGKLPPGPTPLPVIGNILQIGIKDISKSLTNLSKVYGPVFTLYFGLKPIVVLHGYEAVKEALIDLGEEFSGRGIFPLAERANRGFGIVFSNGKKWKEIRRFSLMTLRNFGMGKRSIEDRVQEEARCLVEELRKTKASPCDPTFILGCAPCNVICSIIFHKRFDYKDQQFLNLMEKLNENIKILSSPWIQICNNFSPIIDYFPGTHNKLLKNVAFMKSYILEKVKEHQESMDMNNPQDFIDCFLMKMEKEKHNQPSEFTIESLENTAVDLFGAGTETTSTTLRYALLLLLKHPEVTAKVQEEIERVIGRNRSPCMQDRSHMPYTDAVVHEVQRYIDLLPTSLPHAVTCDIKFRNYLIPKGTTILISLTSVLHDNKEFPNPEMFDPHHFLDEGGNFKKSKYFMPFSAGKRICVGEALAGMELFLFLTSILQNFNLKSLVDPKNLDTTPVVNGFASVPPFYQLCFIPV
Procedure: (§2) The activities tested were CYP1A2-mediated phenacetin O-demethylation, CYP2C19-mediated (S)-mephenyotin 4′-hydroxylation, CYP2C9-mediated diclofenac 4′-hydroxylation, CYP2D6-mediated dextromethorphan O-demethylation, and CYP3A4-mediated midazolam 1′-hydroxylation. […] The reactions were initiated by adding NADPH (1 mM final concentration) after a 5 min preincubation, and the assay was run in duplicate (n = 2). Samples were analyzed by ultra-performance liquid chromatography tandem mass spectrometry (UPLC-MS/MS).

[8] = biological target: T7, ABL1(F317I)-nonphosphorylated (Homo sapiens, UniProt P00519, F317I); experiment: KINOMEScan; assay type: binding; conditions: read-out: Percent Control
T7 construct: purchased Eurofins DiscoverX
Source text: (§3) Percent control was mapped onto the kinome tree using TREEspot.

[9] = biological target: T8, ABL1(F317L)-nonphosphorylated (Homo sapiens, UniProt P00519, F317L); experiment: KINOMEScan; assay type: binding; conditions: read-out: Percent Control
T8 construct: purchased Eurofins DiscoverX
Source text: as §3

[10] = biological target: T9, ABL1(T315I)-nonphosphorylated (Homo sapiens, UniProt P00519, T315I); experiment: KINOMEScan; assay type: binding; conditions: read-out: Percent Control
T9 construct: purchased Eurofins DiscoverX
Source text: as §3

[11] = biological target: T10, ABL1(Y253F)-phosphorylated (Homo sapiens, UniProt P00519, Y253F); experiment: KINOMEScan; assay type: binding; conditions: read-out: Percent Control
T10 construct: purchased Eurofins DiscoverX
Source text: as §3

[12] = biological target: T11, ABL1-nonphosphorylated (Homo sapiens, UniProt P00519); experiment: KINOMEScan; assay type: binding; conditions: read-out: Percent Control
T11 construct: purchased Eurofins DiscoverX
Source text: as §3

[13] = biological target: T12, ABL1-phosphorylated (Homo sapiens, UniProt P00519); experiment: KINOMEScan; assay type: binding; conditions: read-out: Percent Control
T12 construct: purchased Eurofins DiscoverX
Source text: as §3

[14] = biological target: T13, ACVR2A (Homo sapiens, UniProt P27037); experiment: KINOMEScan; assay type: binding; conditions: read-out: Percent Control
T13 construct: purchased Eurofins DiscoverX (KINOMEscan)
Source text: as §3

[15] = biological target: T14, ACVRL1 (Homo sapiens, UniProt P37023); experiment: KINOMEScan; assay type: binding; conditions: ACVRL1, 1 µM; read-out: Percent Control
T14 construct: purchased Eurofins DiscoverX (KINOMEscan)
T14 sequence (P37023 22-503): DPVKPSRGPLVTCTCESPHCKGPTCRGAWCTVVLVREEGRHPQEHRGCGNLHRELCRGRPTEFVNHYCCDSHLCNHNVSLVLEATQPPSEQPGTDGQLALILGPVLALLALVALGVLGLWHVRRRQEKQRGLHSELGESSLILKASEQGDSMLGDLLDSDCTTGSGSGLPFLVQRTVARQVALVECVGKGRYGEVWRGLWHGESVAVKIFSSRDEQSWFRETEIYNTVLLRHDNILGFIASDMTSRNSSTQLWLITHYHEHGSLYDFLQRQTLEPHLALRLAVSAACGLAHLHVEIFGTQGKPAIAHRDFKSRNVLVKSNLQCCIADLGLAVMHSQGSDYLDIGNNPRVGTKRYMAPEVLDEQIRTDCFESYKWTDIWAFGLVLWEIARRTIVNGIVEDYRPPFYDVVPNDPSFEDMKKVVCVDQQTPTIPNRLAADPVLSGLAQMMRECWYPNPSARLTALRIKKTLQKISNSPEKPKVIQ
Source text: as §3

[16] = biological target: T15, ADCK4 (Homo sapiens, UniProt Q96D53); experiment: KINOMEScan; assay type: binding; conditions: ADCK4, 1 µM; read-out: Percent Control
T15 construct: purchased Eurofins DiscoverX (KINOMEscan)
T15 sequence (Q96D53 whole entry): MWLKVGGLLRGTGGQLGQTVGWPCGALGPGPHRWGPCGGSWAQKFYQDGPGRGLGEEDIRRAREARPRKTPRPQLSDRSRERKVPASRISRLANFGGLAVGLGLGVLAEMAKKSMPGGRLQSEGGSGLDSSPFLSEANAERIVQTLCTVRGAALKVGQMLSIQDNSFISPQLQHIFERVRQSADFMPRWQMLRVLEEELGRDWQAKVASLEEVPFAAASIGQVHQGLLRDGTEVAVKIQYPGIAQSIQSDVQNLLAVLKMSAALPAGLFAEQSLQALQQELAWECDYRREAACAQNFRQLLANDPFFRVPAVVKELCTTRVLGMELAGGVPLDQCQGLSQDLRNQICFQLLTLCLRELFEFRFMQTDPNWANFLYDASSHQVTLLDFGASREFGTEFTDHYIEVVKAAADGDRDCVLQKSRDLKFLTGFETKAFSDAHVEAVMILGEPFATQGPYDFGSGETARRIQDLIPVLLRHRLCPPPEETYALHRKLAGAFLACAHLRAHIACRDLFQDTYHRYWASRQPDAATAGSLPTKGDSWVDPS
Source text: as §3

[17] = biological target: T16, ALK(L1196M) (Homo sapiens, UniProt Q9UM73, L1196M); experiment: KINOMEScan; assay type: binding; conditions: read-out: Percent Control
T16 construct: purchased Eurofins DiscoverX (KINOMEscan)
Source text: as §3

[18] = biological target: T17, ASK1 (Homo sapiens, UniProt Q99683); experiment: KINOMEScan; assay type: binding; conditions: ASK1, 1 µM; read-out: Percent Control
T17 construct: purchased Eurofins DiscoverX (KINOMEscan)
T17 sequence (Q99683 whole entry): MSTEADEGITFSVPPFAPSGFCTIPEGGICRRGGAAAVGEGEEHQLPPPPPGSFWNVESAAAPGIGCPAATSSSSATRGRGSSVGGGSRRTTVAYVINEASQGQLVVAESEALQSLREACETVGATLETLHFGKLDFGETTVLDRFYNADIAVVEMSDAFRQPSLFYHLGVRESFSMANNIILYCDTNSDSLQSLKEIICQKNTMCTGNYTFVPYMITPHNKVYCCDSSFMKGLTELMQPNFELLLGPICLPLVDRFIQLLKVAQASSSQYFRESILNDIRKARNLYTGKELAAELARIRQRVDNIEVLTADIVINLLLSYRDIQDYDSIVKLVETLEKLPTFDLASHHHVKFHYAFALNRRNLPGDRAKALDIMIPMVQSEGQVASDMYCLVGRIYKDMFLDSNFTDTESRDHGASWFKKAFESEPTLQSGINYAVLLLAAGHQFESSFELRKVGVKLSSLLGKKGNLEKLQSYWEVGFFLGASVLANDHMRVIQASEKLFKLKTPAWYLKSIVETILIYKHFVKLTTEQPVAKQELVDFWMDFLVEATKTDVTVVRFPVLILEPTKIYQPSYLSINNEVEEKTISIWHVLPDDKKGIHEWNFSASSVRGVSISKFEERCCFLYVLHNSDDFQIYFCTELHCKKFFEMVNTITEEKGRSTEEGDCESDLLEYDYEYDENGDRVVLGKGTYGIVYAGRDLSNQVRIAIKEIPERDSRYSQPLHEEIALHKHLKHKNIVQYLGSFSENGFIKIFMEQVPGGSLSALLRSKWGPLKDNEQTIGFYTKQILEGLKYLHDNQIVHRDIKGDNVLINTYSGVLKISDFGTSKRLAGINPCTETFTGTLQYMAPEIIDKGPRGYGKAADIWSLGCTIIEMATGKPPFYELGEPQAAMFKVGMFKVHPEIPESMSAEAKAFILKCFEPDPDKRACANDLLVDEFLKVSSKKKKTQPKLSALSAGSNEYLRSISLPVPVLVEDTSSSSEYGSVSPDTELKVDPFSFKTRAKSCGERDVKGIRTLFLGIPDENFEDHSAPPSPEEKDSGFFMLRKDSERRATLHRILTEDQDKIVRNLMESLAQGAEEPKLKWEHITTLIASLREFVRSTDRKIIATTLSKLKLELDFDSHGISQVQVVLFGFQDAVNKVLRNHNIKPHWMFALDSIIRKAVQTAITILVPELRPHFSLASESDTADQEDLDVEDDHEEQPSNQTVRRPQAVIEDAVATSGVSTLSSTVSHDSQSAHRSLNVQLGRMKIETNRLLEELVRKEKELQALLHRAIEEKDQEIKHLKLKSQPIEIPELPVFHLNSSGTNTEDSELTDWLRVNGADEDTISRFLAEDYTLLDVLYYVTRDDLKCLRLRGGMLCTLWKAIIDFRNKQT

[19] = biological target: T18, AXL (Homo sapiens, UniProt P30530); experiment: KINOMEScan; assay type: binding; conditions: read-out: Percent Control
T18 construct: purchased Eurofins DiscoverX (KINOMEscan)
Source text: as §3

[20] = biological target: T19, BMPR1B (Homo sapiens, UniProt O00238); experiment: KINOMEScan; assay type: binding; conditions: read-out: Percent Control
T19 construct: purchased Eurofins DiscoverX (KINOMEscan)
T19 sequence (O00238 14-502): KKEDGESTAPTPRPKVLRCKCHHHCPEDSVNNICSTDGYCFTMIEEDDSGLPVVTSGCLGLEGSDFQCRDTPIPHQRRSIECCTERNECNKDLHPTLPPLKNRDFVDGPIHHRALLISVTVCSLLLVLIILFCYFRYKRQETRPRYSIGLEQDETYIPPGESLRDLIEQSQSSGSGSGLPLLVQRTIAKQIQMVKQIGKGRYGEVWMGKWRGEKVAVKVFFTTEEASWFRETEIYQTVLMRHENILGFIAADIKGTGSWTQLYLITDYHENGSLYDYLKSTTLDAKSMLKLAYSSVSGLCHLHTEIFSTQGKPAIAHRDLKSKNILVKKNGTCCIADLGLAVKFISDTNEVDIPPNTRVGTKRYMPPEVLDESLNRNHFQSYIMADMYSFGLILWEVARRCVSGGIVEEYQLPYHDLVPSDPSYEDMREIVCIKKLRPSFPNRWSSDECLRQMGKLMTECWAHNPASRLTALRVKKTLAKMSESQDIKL
Source text: as §3

[21] = biological target: T20, BRSK2 (Homo sapiens, UniProt Q8IWQ3); experiment: KINOMEScan; assay type: binding; conditions: BRSK2, 1 µM; read-out: Percent Control
T20 construct: purchased Eurofins DiscoverX (KINOMEscan)
Source text: as §3

[22] = biological target: T21, WNK3 (Homo sapiens, UniProt Q9BYP7); experiment: KINOMEScan; assay type: binding; conditions: WNK3, 1 µM; read-out: Percent Control
T21 construct: purchased Eurofins DiscoverX
Source text: as §3

[23] = biological target: T22, YANK3 (Homo sapiens, UniProt Q86UX6); experiment: KINOMEScan; assay type: binding; conditions: YANK3, 1 µM; read-out: Percent Control
T22 construct: purchased Eurofins DiscoverX (KINOMEScan service)

[24] = biological target: T23, ZAP70 (Homo sapiens, UniProt P43403); experiment: KINOMEScan; assay type: binding; conditions: ZAP70, 1 µM; read-out: Percent Control
T23 construct: purchased Eurofins DiscoverX (KINOMEScan service)
T23 sequence (P43403 whole entry): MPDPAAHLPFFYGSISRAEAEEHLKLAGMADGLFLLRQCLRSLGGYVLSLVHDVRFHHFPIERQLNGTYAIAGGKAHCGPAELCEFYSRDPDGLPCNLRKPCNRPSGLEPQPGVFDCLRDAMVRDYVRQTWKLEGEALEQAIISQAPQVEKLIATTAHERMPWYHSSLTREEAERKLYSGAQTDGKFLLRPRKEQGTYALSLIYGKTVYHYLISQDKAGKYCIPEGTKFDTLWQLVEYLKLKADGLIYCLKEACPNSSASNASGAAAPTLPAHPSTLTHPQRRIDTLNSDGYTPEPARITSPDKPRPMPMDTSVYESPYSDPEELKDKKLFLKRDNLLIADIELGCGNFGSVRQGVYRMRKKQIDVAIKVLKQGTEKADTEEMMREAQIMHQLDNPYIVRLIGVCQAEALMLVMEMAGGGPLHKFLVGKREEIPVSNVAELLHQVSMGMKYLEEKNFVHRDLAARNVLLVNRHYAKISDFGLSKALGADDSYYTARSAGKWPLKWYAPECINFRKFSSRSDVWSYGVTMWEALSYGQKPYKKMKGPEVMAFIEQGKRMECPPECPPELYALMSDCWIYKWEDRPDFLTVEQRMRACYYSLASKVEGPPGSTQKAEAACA
Source text: as §3

[25] = biological target: T5, LYN; experiment: KINOMEScan; assay type: binding; conditions: read-out: Percent Control
Source text: as §3

[26] = biological target: T24, CYP2D6 (Homo sapiens, UniProt P10635); experiment: CYP2D6 time-dependent inhibition in human liver microsomes; conditions: for Inhibition percentage(%) at Top conc. / IC50: liver microsomes; for IC50: read-out: CYP2D6 IC50
T24 sequence (P10635 whole entry): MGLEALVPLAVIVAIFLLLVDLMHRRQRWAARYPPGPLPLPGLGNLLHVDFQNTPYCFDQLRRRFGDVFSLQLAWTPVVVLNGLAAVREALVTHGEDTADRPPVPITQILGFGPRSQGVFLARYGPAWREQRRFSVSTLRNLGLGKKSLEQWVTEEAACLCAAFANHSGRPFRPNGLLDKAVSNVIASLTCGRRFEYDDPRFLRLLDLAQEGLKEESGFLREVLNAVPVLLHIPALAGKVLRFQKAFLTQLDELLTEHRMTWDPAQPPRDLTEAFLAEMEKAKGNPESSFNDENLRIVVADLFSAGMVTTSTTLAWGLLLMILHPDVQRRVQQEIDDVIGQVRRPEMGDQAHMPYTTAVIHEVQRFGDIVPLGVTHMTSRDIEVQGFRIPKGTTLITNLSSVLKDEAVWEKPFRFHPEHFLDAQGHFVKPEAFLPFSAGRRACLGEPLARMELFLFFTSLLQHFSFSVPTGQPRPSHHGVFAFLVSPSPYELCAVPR

[27] = biological target: T24, CYP2D6; experiment: CYP2D6 time-dependent inhibition in primary human hepatocytes; conditions: for Inhibition percentage(%) at Top conc.: human hepatocytes; for IC50 at 5 min: human, primary human hepatocytes, probe dextromethorphan (40 μM), O-demethylation
[28] = biological target: T24, CYP2D6; experiment: CYP450 inhibition in human liver microsomes; assay type: in vitro ADME; parameters: tissue BD Gentest 452117; host or cells: pooled human liver microsomes, mixed gender
Procedure: as §2

[29] = CYP2D6 IC50, human hepatocytes, pre-incubation 30 min

## COc1cc2ncnc(Nc3cccc(Cl)c3F)c2cc1OCCON1CCN(C)CC1 [Compound 9, N-(3-Chloro-2-fluorophenyl)-7-methoxy-6-(2-((4-methylpiperazin-1-yl)oxy)ethoxy)quinazolin-4-amine]
[1]
  Kd: 260 nM
[2]
  Kd: 180 nM
[3]
  Kd: 87 nM
[4]
  Kd: 21 nM
[5]
  Kd: 110 nM
[6]; beagle, dog, hepatocytes
  hepatocyte CLint at 2 h, 1 µM: 13 µL/min/1e6 cells
[6]; 15 min
  Remaining Percentages: 88.01%
[6]; 30 min
  Remaining Percentages: 79.61%
[6]; 60 min
  Remaining Percentages: 68.74%
[6]; 90 min
  Remaining Percentages: 60.01%
[6]; 120 min
  Remaining Percentages: 41.31%
[7]
  IC50: > 30000 nM
[8]
  remaining binding at 1 µM: 54%
[9]
  remaining binding at 1 µM: 16%
[10]
  remaining binding at 1 µM: 68%
[11]
  remaining binding at 1 µM: 6.6%
[12]
  remaining binding at 1 µM: 8.9%
[13]
  remaining binding at 1 µM: 7.7%
[14]
  remaining binding at 1 µM: 100%
[15]
  remaining binding at 1 µM: 100%
[16]
  remaining binding at 1 µM: 79%
[17]
  remaining binding at 1 µM: 100%
[18]
  remaining binding at 1 µM: 100%
[19]
  remaining binding at 1 µM: 100%
[20]
  remaining binding at 1 µM: 79%
[21]
  remaining binding at 1 µM: 74%
[22]
  remaining binding at 1 µM: 94%
[23]
  remaining binding at 1 µM: 86%
[24]
  remaining binding at 1 µM: 98%
[25]
  remaining binding at 1 µM: 7.4%
[26]; IC50-shift, human liver microsomes and primary human hepatocytes
  CYP 2D6 TDI: Negative; also recorded: not to be time-dependent
[26]; 0 min
  Inhibition percentage(%) at Top conc.: 78.15%
[26]; 30 min with NADPH
  Inhibition percentage(%) at Top conc.: 74.73%
  IC50: 1820 nM
[26]; 30 min without NADPH
  Inhibition percentage(%) at Top conc.: 78.78%
  IC50: 1160 nM
[26]; pre-incubation 0 min
  IC50: 1050 nM
[27]; [29]
  IC50: 4750 nM
  IC50 at 5 min: 4730 nM
[27]; 0 min
  Inhibition percentage(%) at Top conc.: 63.41%
[27]; 30 min
  Inhibition percentage(%) at Top conc.: 66.54%
[27]; CYP2D6 IC50, human hepatocytes, pre-incubation 0 min
  IC50 at 5 min: 4570 nM
[28]
  IC50: 1100 nM and 1110 nM
